As usually defined, the IC50 is the concentration at which inhibition is half-maximal. The term inhibition denotes the relative decrease from the control value, in per cent.

Experimental findings from patent US20260130917A1, “ANTIVIRAL COMPOSITION FOR CORONAVIRUS OR INFLUENZA VIRUS, USING NATURAL PRODUCTS, AND USE THEREOF” (priority 2022, published 2026) are described below.

Each structure is given as a SMILES string. A value given as a limit tells only on which side of the number the result lay.

A short description of series [1]: in vitro. Particulars: monkey.
Series [2] relates to SARS-CoV-2 (βCoV/KOR/KCDC03/2020). Nature of the series: in vitro. Particulars: monkey.
Series [3] shares this test system. Nature of the series: microbe, parasite or virus in culture. Particulars: Severe acute respiratory syndrome coronavirus 2, Vero.
For series [4] the test system is unchanged. Nature of the series: microbe, parasite or virus in culture. Particulars: Severe acute respiratory syndrome coronavirus 2, Calu-3.
For series [5] the test system is unchanged. Nature of the series: in vitro. Particulars: human.
Series [6] in a line: in vitro. Particulars: human.
For series [7], the system named is SARS-CoV-2 βCoV/Korea/KCDC03/2020, NCCP43326. Nature of the series: Efficacy in SARS-CoV-2 infected hACE2 transgenic mice (lung virus titer and viral RNA). Particulars: orally at 50 mg/kg, once a day three times, lungs on third day. Format: in vivo.
In series [8] the test system is influenza A H1N1 A/California/07/2009. Nature of the series: Antiviral activity against influenza virus in MDCK cells. In kind it is cell-based, influenza A virus. Particulars: concentration of 6.3 μM.
For series [9], the system named is SARS-CoV-2 spike pseudovirus particles. Nature of the series: organism not typed. In kind it is cell-based.
The test system of series [10] is SARS-CoV-2 virus (B CoV/Korea/KCDC03/2020, NCCP43326). Nature of the series: Time-of-addition assay in Vero cells. Format: cell-based. Particulars: 50 μM, MOI 3.
For series [11], the system named is influenza B B/Brisbane/60/2008. Nature of the series: Antiviral activity against influenza virus in MDCK cells. In kind it is cell-based, influenza B virus. Particulars: concentration of 6.3 μM.
Series [12] concerns influenza A H3N2 A/Hong Kong/4801/2014. The description is as above. Format: cell-based, influenza A virus. Particulars: concentration of 6.3 μM.

`O=C(Cn1ccc2ccc(OCc3ccccc3)cc21)NC[C@@H]1CCCN2CCCC[C@H]12` [MolPort-027-564-475, N-{[(1S,9aR)-octahydro-1H-quinolizin-1-yl]methyl}-2-[6-(benzyloxy)-1H-indol-1-yl]acetamide] returned a CC50 in [1] of 34.3 µM. For the same compound, the selectivity ratio in [2] worked out at 1.85. 18.5 µM corresponded to half-maximal inhibition in series [3] (IC50).

Consider `CC(C)(C)c1cc(CCCOC(=O)CNC2CCCCC2)cc(C(C)(C)C)c1O` [MolPort-002-152-403, 3-(3,5-di-tert-butyl-4-hydroxyphenyl)propyl 2-(cyclohexylamino)acetate], for which, in [1], the CC50 was found to be 56.2 µM. Also, in series [2], the selectivity ratio is 1.73. The compound also yielded an IC50 in series [3] of 32.5 µM.

The compound `CCCCCC[C@@H](O)C/C=C\CCCCCCCC(=O)O` [MolPort-003-939-239, (9Z,12R)-12-hydroxyoctadec-9-enoic acid] came in with a CC50 in [1] greater than 100 µM. In series [3], this compound gave an IC50 of 60.5 µM.

As for `CCCCCCCC/C=C\CCCCCCCC(=O)O` [MolPort-001-788-274, (9Z)-octadec-9-enoic acid], the CC50 in series [1] is greater than 100 µM. For the same compound, the IC50 in series [3] is 67.9 µM.

`CC/C=C/C/C=C/C/C=C/C/C=C/C/C=C/C/C=C\CCC(=O)O` [MolPort-008-266-638, (4Z,7E,10E,13E,16E,19E)-docosa-4,7,10,13,16,19-hexaenoic acid] gave a CC50 in [1] of 36.2 µM. In addition, in [2], the selectivity ratio amounted to 1.29. The compound also came in with an IC50 in [3] of 28.2 µM.

Compound `CC/C=C\C/C=C\C/C=C\C/C=C\C/C=C\CCCC(=O)O` [MolPort-003-933-180, (5Z,8Z,11Z,14Z,17Z)-icosa-5,8,11,14,17-pentaenoic acid] showed a CC50 in [1] of 70.5 µM. Further, the selectivity ratio in series [2] was 1.69. The compound further displayed an IC50 in series [3] of 41.8 µM.

`CC/C=C\C/C=C\C/C=C\C/C=C\C/C=C\C/C=C\CCC(=O)O` [MolPort-003-932-890, (4Z,7Z,10Z,13Z,16Z,19Z)-docosa-4,7,10,13,16,19-hexaenoic acid]: the CC50 in series [1] stood at 62.4 µM. For the same compound, in series [2], the selectivity ratio turned out to be 1.06. For the same compound, inhibition in series [3] was half-maximal at 58.6 µM (IC50).

Regarding `CCCCC/C=C\C/C=C\CCCCCCCC(=O)O` [MolPort-001-788-459, (9Z,12Z)-octadeca-9,12-dienoic acid], in series [1], the CC50 was greater than 100 µM. In addition, the IC50 in series [3] was 37.6 µM.

`CC(C)CCC(CCNCc1ccc(OC(C)C)cc1)C1CCOC(C)(C)C1` (stereo not shown) [MolPort-009-758-577, [3-(2,2-dimethyloxan-4-yl)-6-methylheptyl]({[4-(propan-2-yloxy)phenyl]methyl})amine and oxalic acid] displayed a CC50 in series [1] of 14.5 µM. Besides, in series [2], the selectivity ratio was found to be 1.83. This compound showed an IC50 in [3] of 7.94 µM.

With `CCCc1cc2c3c(c(=O)oc2cc1OC(=O)CNC(=O)OCc1ccccc1)CCC3` [MolPort-002-526-563, 4-oxo-8-propyl-1H,2H,3H,4H-cyclopenta[c]chromen-7-yl 2-{[(benzyloxy)carbonyl]amino}acetate], the CC50 in series [1] was determined as 33.4 µM. In addition, the selectivity ratio in [2] stood at 1.16. Also, in series [3], the IC50 is 28.7 µM.

As for `CCCCCCCCC1OCC(OC(=O)c2ccc(OC)cc2)CO1` (stereo not shown) [MolPort-002-515-990, 2-octyl-1,3-dioxan-5-yl 4-methoxybenzoate], the CC50 in [1] and in series [6] was greater than 100 µM throughout. Moreover, the IC50 in series [4] is 52.2 µM; in series [3] it was 24.6 µM. In addition, the selectivity ratio in series [5] is 1.92.

Consider `CC/C=C\C/C=C\C/C=C\CCCCCCCC(=O)O` [MolPort-003-937-817, (9Z,12Z,15Z)-octadeca-9,12,15-trienoic acid], for which the CC50 in series [1] is greater than 100 µM. For the same compound, the selectivity ratio in series [2] was determined as 1.71. The compound also came in with an IC50 in [3] of 58.6 µM.

Turning to `CC(C)(C)c1cc(CCCOC(=O)CNc2ccccc2)cc(C(C)(C)C)c1O` [MolPort-002-151-168, 3-(3,5-di-tert-butyl-4-hydroxyphenyl)propyl 2-(phenylamino)acetate], the CC50 in series [1] and in series [6] was greater than 100 µM each time. Further, the values for the IC50 in series [4] and in [3] were 60.7 µM and 23.5 µM, respectively. In addition, the selectivity ratio in series [5] stood at 1.65.

`CCCCCCCc1ccc(C(=O)Oc2ccc(SC)cc2)cc1` [MolPort-003-713-147, 4-(methylsulfanyl)phenyl 4-heptylbenzoate]: the CC50 in [1] is greater than 100 µM. The IC50 in [3] is 94.4 µM.

As for `CCCCCCCc1ccc(C(=O)Oc2ccc(C(=O)O)cc2)cc1` [MolPort-003-709-991, 4-(4-heptylbenzoyloxy)benzoic acid], in [1], the CC50 was greater than 100 µM. Moreover, the IC50 in series [3] is 43.3 µM.

`CCCCCCCOC(=O)c1ccc(OC(=O)c2cccnc2)cc1` [MolPort-003-711-757, 4-[(heptyloxy)carbonyl]phenyl pyridine-3-carboxylate] yielded a CC50 in series [1] of 49 µM. For the same compound, the selectivity ratio in series [2] is 2.02. In [3], half-maximal inhibition (IC50) required 24.3 µM.

On to `CCCCCCCOC(=O)c1ccc(OC(=O)c2cncc(Br)c2)cc1` [MolPort-003-713-431, 4-[(heptyloxy)carbonyl]phenyl 5-bromopyridine-3-carboxylate], for which, in series [1], the CC50 was greater than 100 µM. Also, the midpoint of inhibition in series [3], the IC50, lay at 57.5 µM.

`CCCCCOc1cccc(/C=C/C23N=C(O)CCN2c2ccccc2C3(C)C)c1` (stereo not shown) [MolPort-005-980-235, 10,10-dimethyl-10a-[(1E)-2-[3-(pentyloxy)phenyl]ethenyl]-3H,4H,10H,10aH-pyrimido[1,2-a]indol-2-ol]: the “viral RNA in the lungs” value in [7] was “decreased at a statistically significant level”. Besides, the “viral titer (TCID50) in the lungs” value in series [7] is given as “tended to decrease”. The compound further returned a CC50 in series [1] greater than 100 µM. The IC50 in [4] came to 15.6 µM; in series [3], 8.49 µM; in series [9] (48 h), 27.5 µM. Besides, the antiviral activity result in series [8] is recorded as “about 90%”; in series [11], “about 50%”; in series [12] it was “about 90%”. For the same compound, the selectivity ratio in series [5] came out at 6.42. For the same compound, the inhibition at 50 µM in series [9] (Severe acute respiratory syndrome coronavirus 2, read-out: inhibition of intracellular entry of the SARS-CoV-2 virus) was roughly 90%. Besides, the figures for the virus infection pattern entry in series [10] (treated 1 hour after virus infection) and in series [10] (treated 1 hour before virus infection or simultaneously with the virus) were “virus infection could not be prevented” and “virus infection did not occur”, respectively.

`CCOC(=O)c1c(C(C)(C)C)oc2ccc(OC(=O)c3ccc(OC)cc3)cc12` [MolPort-000-424-809, Ethyl 2-tert-butyl-5-(4-methoxybenzoyloxy)-1-benzofuran-3-carboxylate]: the CC50 in [1] and in [6] was greater than 100 µM in each case. Moreover, the IC50 amounted to 50.7 µM in series [4] and 31.2 µM in series [3]. The selectivity ratio in series [5] is 1.97.

In series [1], `O=C(NCCc1ccccc1)c1cc2c([nH]c3ccccc32)c(CCc2ccccc2)n1` [MolPort-002-526-760, N,1-bis(2-phenylethyl)-9H-pyrido[3,4-b]indole-3-carboxamide] returned a CC50 of 42.2 µM. Also, the selectivity ratio in series [2] worked out at 1.63. In addition, in series [3], 25.8 µM corresponded to half-maximal inhibition (IC50).

As to `CCCCCCCCCCC#CC#CCCCCCCCCC(=O)O` [MolPort-003-939-688, tricosa-10,12-diynoic acid], the CC50 in [1] and in series [6] was greater than 100 µM throughout. In addition, the IC50 in series [4] came out at 83.8 µM; in series [3], 29.9 µM. For the same compound, the selectivity ratio in series [5] was 1.19.

`c1ccc(Oc2cccc(OCCCN3CCCCC3c3cccnc3)c2)cc1` (stereo not shown) [MolPort-000-829-850, 3-{1-[3-(3-phenoxyphenoxy)propyl]piperidin-2-yl}pyridine and oxalic acid]: the CC50 in [1] turned out to be 32.4 µM. The selectivity ratio in series [2] amounted to 2.08. This compound also had an IC50 in [3] of 15.6 µM.

In the case of `O=C(OC[C@@H]1CCCN2CCCC[C@H]12)c1ccc(CSCc2ccccc2)o1` [MolPort-002-520-573, [(1R,9aR)-octahydro-1H-quinolizin-1-yl]methyl 5-[(benzylsulfanyl)methyl]furan-2-carboxylate], the CC50 in series [1] is 58 µM. For the same compound, the selectivity ratio in [2] was determined as 2.04. In series [3], this compound gave an IC50 of 28.5 µM.

As to `O=C(CCCNC(=O)c1cc2ccccc2o1)NCCc1c[nH]c2ccccc12` [MolPort-005-974-761, 4-[(1-benzofuran-2-yl)formamido]-N-[2-(1H-indol-3-yl)ethyl]butanamide], the CC50 in series [1] was greater than 100 µM. For the same compound, half-maximal inhibition in series [3] (IC50) required 71.3 µM.

As to `O=C(C[C@@H]1CCNC[C@@H]1Cc1cc(COc2ccccc2)on1)NCc1ccc(F)cc1` [MolPort-005-947-745, N-[(4-fluorophenyl)methyl]-2-[(3R,4S)-3-{[5-(phenoxymethyl)-1,2-oxazol-3-yl]methyl}piperidin-4-yl]acetamide], in series [1], the CC50 turned out to be 34.7 µM. Moreover, the selectivity ratio in series [2] worked out at 1.43. This compound also returned an IC50 in series [3] of 24.3 µM.

Turning to `O=C(NC[C@@H]1CCCN2CCCC[C@H]12)c1cccc(-c2cc3ccccc3oc2=O)c1` [MolPort-027-564-039, N-{[(1S,9aR)-octahydro-1H-quinolizin-1-yl]methyl}-3-(2-oxo-2H-chromen-3-yl)benzamide], in series [1], the CC50 is greater than 100 µM. Besides, the IC50 in series [3] turned out to be 23.3 µM.
